One may read the Ki as a measure of affinity in units of concentration, obtained from inhibition or displacement. Low readings indicate higher affinity, high ones lower affinity. Broadly, the MIC is the lowest concentration that inhibits growth of the organism.

Data set [1] deals with T1, VIM-2 (Escherichia coli, UniProt Q5U7L7). Kind of data set: BTZ inhibition kinetics of nitrocefin hydrolysis by VIM-2. As to conditions: for Ki: overall dissociation constant from vs, slow binding model. It is filed as biochemical, P. aeruginosa.
Data set [2] concerns the target T2, VIM-24 (Escherichia coli, UniProt Q5U7L7, R205L). Kind of data set: BTZ inhibition kinetics of nitrocefin hydrolysis by VIM-24. It is filed as biochemical, Klebsiella pneumoniae. The note with it: for Ki: overall dissociation constant from vs, slow binding model.
The next data set concerns MBLs. Nature of the data set: Inhibitory activity toward MBLs after prolonged exposure to oxidative conditions. As to conditions: assays in solution; data not shown. Format: biochemical.
The subject of a further data set is E. coli pBC SK(−). Nature of the data set: MIC by agar dilution, E. coli DH10B with empty pBC SK. It is filed as cell-based. As to conditions: Escherichia coli.
The subject of data set [3] is E. coli DH10B pBCSK(−) producing VIM-2 (228R). Kind of data set: MIC by agar dilution, E. coli DH10B pBCSK. Format: cell-based. As to conditions: Escherichia coli. A general note: In agar dilution the substance is mixed into plates at graded concentrations.
For data set [4], the system named is E. coli DH10B pBCSK(−) producing VIM-24 (R228L). Nature of the data set: MIC by agar dilution, E. coli DH10B pBCSK. The note with it: Escherichia coli. It is filed as cell-based.
Data set [5] deals with E. coli DH10B pBCSK(−) producing R228K. Nature of the data set: MIC by agar dilution, E. coli DH10B pBCSK. The note with it: Escherichia coli. It is filed as cell-based.
The subject of data set [6] is E. coli DH10B pBCSK(−) producing R228P. Nature of the data set: MIC by agar dilution, E. coli DH10B pBCSK. It is filed as cell-based. As to conditions: Escherichia coli.
Data set [7] has as its system E. coli DH10B pBCSK(−) producing R228M. Kind of data set: MIC by agar dilution, E. coli DH10B pBCSK. Format: cell-based. The note with it: Escherichia coli.
Data set [8] has as its system E. coli DH10B pBCSK(−) producing R228Q. Nature of the data set: MIC by agar dilution, E. coli DH10B pBCSK. Format: cell-based. As to conditions: Escherichia coli.
The test system of data set [9] is E. coli DH10B pBCSK(−) producing R228Y. Kind of data set: MIC by agar dilution, E. coli DH10B pBCSK. Format: cell-based. The note with it: Escherichia coli.
The test system of data set [10] is E. coli DH10B pBCSK(−) producing R228X (other variants). Kind of data set: MIC by agar dilution, E. coli DH10B pBCSK. It is filed as cell-based. The note with it: Escherichia coli, R228X: range of MIC values of the other variants; MHA.
Data set [11] has as its target T1, VIM-2. Kind of data set: Hydrolysis of cefepime and ceftazidime by periplasm preparations, VIM-2. As to conditions: VIM-2 periplasmic preparation; 800 μM cefepime. It is filed as biochemical, P. aeruginosa.
Data set [12] addresses T2, VIM-24. Nature of the data set: Hydrolysis of cefepime and ceftazidime by periplasm preparations, VIM-24. Format: biochemical, Klebsiella pneumoniae. The note with it: VIM-24 periplasmic preparation; 800 μM cefepime.
The mark [13] stands for this setting: rate constant for formation of E*I.

Converted amounts (≈) assume the structure as drawn. Bounds are passed on as bounds.

`O=C(O)[C@H]1CS[C@@H]2CS[C@@H](CS)N12` [D-CS319]: the Ki at VIM-2 [1] was determined as 0.18 ± 0.02 µM; on VIM-24 [2], 0.64 ± 0.01 µM. The k2 entry is on record as “(0.01 ± 1) × 10^−3 s^−1” at VIM-2 [1] (setting [13]) and “(0.07 ± 4) × 10^−3 s^−1” at VIM-24 [2] (setting [13]). The “k−2” value at VIM-24 [2] (rate constant for breakdown of E*I) is given as “(0.004 ± 1) × 10^−3 s^−1”.
`O=C(O)[C@@H]1CS[C@H]2CS[C@H](CS)N21` [L-CS319]: the Ki was 0.04 ± 0.01 µM on VIM-2 [1] and 0.12 ± 0.02 µM on VIM-24 [2]. The “effect of prolonged exposure to oxidative conditions on inhibitory activity” value in the data set with MBLs was “abolishes the inhibitory activity”.
As for `CC1(C)S[C@@H]2[C@H](NC(=O)[C@H](N)c3ccccc3)C(=O)N2[C@H]1C(=O)O` [ampicillin], the MIC in the data set on E. coli pBC SK(−) (MHA) was 4 µg/mL (≈ 11.4 µM); in data set [3] (MHA), 512 µg/mL (≈ 1470 µM); in data set [4] (MHA) it was 512 µg/mL (≈ 1470 µM); in data set [5] (MHA), 32 µg/mL (≈ 91.6 µM); in data set [6] (MHA), 32 µg/mL (≈ 91.6 µM); in data set [7] (MHA), 1020 µg/mL (≈ 2930 µM). Moreover, the MIC in [8] (MHA) is 1020 µg/mL (≈ 2930 µM); in [9] (MHA), 1020 µg/mL (≈ 2930 µM); in data set [10] it was 64 to 512 µg/mL (≈ 183 to 1470 µM).
Take `C[C@H]1[C@H](NC(=O)/C(=N\OC(C)(C)C(=O)O)c2csc(N)n2)C(=O)N1S(=O)(=O)O` [aztreonam]: the MIC (with E. coli pBC SK(−) (MHA); in data set [3] (MHA); in [4] (MHA); in data set [5] (MHA); in data set [6] (MHA); in data set [7] (MHA)) was ≤ 0.125 µg/mL in each case. Also, the MIC in data set [8] (MHA), in data set [9] (MHA) and in data set [10] was ≤ 0.125 µg/mL throughout.
With `CO/N=C(\C(=O)N[C@@H]1C(=O)N2C(C(=O)[O-])=C(C[N+]3(C)CCCC3)CS[C@H]12)c1csc(N)n1` [cefepime], the MIC was 0.03 µg/mL (≈ 0.0624 µM) with E. coli pBC SK(−) (MHA); ≤ 0.25 µg/mL in the data set with E. coli pBC SK(−) (MHA + 5 μM EDTA); ≤ 0.25 µg/mL in the data set with E. coli pBC SK(−) (MHA + 250 μM Zn^2+); ≤ 0.5 µg/mL in data set [3] (MHA); 0.5 µg/mL in data set [3] (MHA + 5 μM EDTA); 0.5 µg/mL in data set [3] (MHA + 250 μM Zn^2+). Moreover, the MIC in data set [4] (MHA) was 4 µg/mL (≈ 8.32 µM); in data set [4] (MHA + 5 μM EDTA), 4 µg/mL; in data set [4] (MHA + 250 μM Zn^2+), 4 µg/mL; in data set [5] (MHA) it was 0.5 µg/mL (≈ 1.04 µM); in data set [5] (MHA + 5 μM EDTA), ≤ 0.25 µg/mL; in [5] (MHA + 250 μM Zn^2+), ≤ 0.25 µg/mL. The MIC was 0.25 µg/mL (≈ 0.52 µM) in data set [6] (MHA); ≤ 0.25 µg/mL in [6] (MHA + 5 μM EDTA); 0.5 µg/mL in data set [6] (MHA + 250 μM Zn^2+); 2 µg/mL (≈ 4.16 µM) in [7] (MHA); 4 µg/mL in data set [7] (MHA + 5 μM EDTA); 2 µg/mL in data set [7] (MHA + 250 μM Zn^2+). Besides, the MIC stood at 16 µg/mL (≈ 33.3 µM) in data set [8] (MHA); 16 µg/mL in data set [8] (MHA + 5 μM EDTA); 32 µg/mL in data set [8] (MHA + 250 μM Zn^2+); 8 µg/mL (≈ 16.6 µM) in data set [9] (MHA); 8 µg/mL in data set [9] (MHA + 5 μM EDTA); 8 µg/mL in data set [9] (MHA + 250 μM Zn^2+). This molecule also displayed an MIC in data set [10] of 1 to 4 µg/mL (≈ 2.08 to 8.32 µM). Further, the “rate of hydrolysis (initial velocity) in periplasm” value came to 2.9e-07 M/s on VIM-2 [11] and 5.3e-07 M/s at VIM-24 [12].
As for `CO/N=C(\C(=O)N[C@@H]1C(=O)N2C(C(=O)O)=C(COC(C)=O)CS[C@H]12)c1csc(N)n1` [cefotaxime], the MIC was 0.06 µg/mL (≈ 0.132 µM) in the data set with E. coli pBC SK(−) (MHA); 8 µg/mL (≈ 17.6 µM) in data set [3] (MHA); 16 µg/mL (≈ 35.1 µM) in data set [4] (MHA); 1 µg/mL (≈ 2.2 µM) in data set [5] (MHA); 1 µg/mL (≈ 2.2 µM) in data set [6] (MHA); 16 µg/mL (≈ 35.1 µM) in [7] (MHA). Moreover, the values for the MIC in data set [8] (MHA), in data set [9] (MHA) and in data set [10] were 32 µg/mL (≈ 70.3 µM), 16 µg/mL (≈ 35.1 µM) and 2 to 32 µg/mL (≈ 4.39 to 70.3 µM), respectively.

The record behind these values is paper PMC4700511 (Biochemistry, 2015).
